US20260242320A1, “USE OF CANNABIDIOL DERIVATIVE IN PREPARATION OF MEDICAMENT” (priority 2023, published 2026)
Entries after “also recorded” stand apart in the source; their conditions may differ.

Assays:
[1] = biological target: T1, CB2 Receptor (Homo sapiens, UniProt P34972); test: cAMP measurement, forskolin-induced cAMP accumulation, CB2; assay type: cell-based; details: cAMP assay
T1 construct: expressed in transfected cells; host or cells: GloSensor 22-F HEK293 cells
Protocol: GloSensor 22-F HEK293 cells were transfected with plasmids encoding different receptors (CB1 and CB2). After 24 h, HEK293 cells were seeded at a density of 5×10^4 cells per well in 96-well plates and incubated for 8 h; then, the medium was removed, and 200 μL of serum-free DMEM medium containing 2% GloSensor cAMP substrate (Promega) was added. After 2 h incubation, the transfected cells were stimulated with different concentrations of ligands together with […]. The luminescence was recorded using a Multimode Plate Reader (En Vision, PerkinElmer).

[2] = test system: 3×Tg Alzheimer's disease mice; test: Anxiety tests in Alzheimer's disease model mice (high plus maze, open field); assay type: in vivo; details: i.p., 45 days
Excerpt: For Alzheimer's disease behavioral experiments (Morris water maze, open field experiment, novel object recognition, Y-maze, and elevated cross maze), triple transgenic mouse models (B6:129-Psen1tm1Mpm Tg (APPswe, tauP301L) 1Lfa/J, 3×Tg) were purchased from the Jax Laboratory in the United States. The wild-type mice (C57BL/6J, WT) were purchased from Beijing Vital River Laboratory Animal Technology Co., Ltd. After 45 days of intraperitoneal injection of CIAC001, all mice were subjected to subsequent behavioral experiments. In order to minimize the use of mice, the mice are first tested for sufficient physical strength and normal mental states. Only one behavioral experiment is conducted per day based on the following schedule: day 1: open field test; day 2-3: novel object recognition; day 3: elevated plus maze; day 4: Y-maze; day 5-13: Morris water maze.
The elevated cross maze consisted of two intersecting open arms (25×5×0.5 cm) and two enclosed arms (25×5×16 cm) that were perpendicular to the open arms. A platform (5×5×0.5 cm) was placed in the center of the maze. […]
At the beginning of the experiment, the mouse was placed in the center area of the elevated cross maze, facing one of the enclosed arms. […] A camera connected to a computer was used to capture the mouse's movements, and the number of entries and time spent in the open and enclosed arms were recorded. […]

[3] = test system: lactate dehydrogenase A (LDHA) mRNA; test: LDHA mRNA in LPS-treated BV-2 cells; assay type: cell-based; details: 3 hours
Protocol: (§1) Total RNA was extracted from cells or mouse brains using the RNeasy Mini Kit. Isolated RNA was reverse-transcribed into cDNA using an RT2 Easy First Strand cDNA Synthesis Kit following the manufacturer's protocols. PCR amplification was conducted using synthetic primers, SYBR Green, and a TOptical Real-Time qPCR Thermal Cycler (Analytik Jena, Thuringia, Germany). The data were analyzed by the […] method, and Rpl711 or Rpl27 was used as an internal control.

[4] = biological target: PKM2 (Mus musculus, UniProt P52480); test: Pull-down with probes 19e/19f and western blotting
Protocol: The protein samples were separated by SDS-PAGE and transferred to PVDF membranes. The membranes were blocked with 5% nonfat dry milk for 1 h. The membranes were incubated with the corresponding primary antibody at 4° C. overnight and then washed with Tris-buffered saline with 0.1% Tween 20 (TBST) for 5 min each time and incubated for 1 h at room temperature with the secondary antibody-HRP conjugate. After washing with TBST, the membranes were developed using Super-Signal West Pico Chemiluminescent Substrate and visualized by a Tanon-5200 Multi. ImageJ was used for densitometric analysis.
BV-2 cells were treated with the probe Compound 19e (5 μM) or CIAC001 (20 μM) for 2 h at 37° C.; then, cells were transferred on ice and irradiated with 365 nm UV light for 30 min. Cells were washed with 3 mL PBS twice and lysed by buffer containing 250 mM HEPES (pH=7.9), 1.5 M KCl, 5 mM EDTA, 0.5% v/v NP-40, and 1% v/v protease inhibitor cocktail. The cell lysate was centrifuged at 4° C. and 12,000 g for 10 min, and the protein concentration was adjusted to 1 mg/mL by the BCA assay kit. […]
BV-2 cells were scraped with PBS; then, cells were lysed with buffer containing 250 mM HEPES (pH=7.9), 1.5 M KCl, 5 mM EDTA, 0.5% v/v NP-40, and 0.025% v/v protease inhibitor cocktail and incubated on ice for 30 min. […] The lysate was subjected to a click reaction as described above and analyzed by SDS-PAGE. […]

[5] = test system: IL-1β in mPFC, NAc and VTA; test: IL-1β expression in brain regions after chronic morphine; assay type: in vivo; details: mice
Protocol: as §1
Conditional place conditioning (CPP) was conducted using the classic 10-consecutive-day procedure. On days 1 and 2, each mouse was separately placed into the CPP apparatus for 15 min to habituate the apparatus. On day 3 (preconditioning), the time spent in each compartment was recorded to determine any preference for the two compartments. Mice were divided into three groups: vehicle group, 7.5 mg/kg morphine, as well as 7.5 mg/kg morphine+0.2 mg/kg CIAC001. During the conditioning phase, mice were separately isolated in the compartment for 30 min on 6 consecutive days. Mice were given morphine on days 4, 6, and 8, and vehicle (5 mL/kg) was administered on days 5, 7, and 9. […] Each mouse was placed in the apparatus and explored freely, and the time spent in each compartment was recorded for 15 min. The CPP score(s) was calculated using the time spent in the drug-paired compartment minus the time spent in the vehicle-paired compartment.

[6] = Y-maze test of short-term memory; assay type: in vivo, mice; details: CIAC001 20 mg/kg i.p.; THC 10 mg/kg i.p.
Protocol: Mice were tested for short-term memory using a Y-maze task. Briefly, mice were placed into the Y-maze for 10 min once daily to habituate the apparatus for two consecutive days. After daily habituation, the mice were then treated with CIAC001 (20 mg/kg) or THC (10 mg/kg). On the 3rd day, mice were pretreated with CIAC001 or THC 45 min before the Y-maze test. Next, the “new arm” was blocked, and mice had 5 min to freely explore two arms (the “start arm” and the “old arm”, FIG. 8F). Mice were then removed from the Y-maze and placed into the cages for 2 min. During the test phase, mice were allowed to freely explore all three arms for 2 min, and the time spent in each arm was recorded and analyzed using the Noldus analyzing software. To eliminate olfactory interference, the Y-maze was wiped off with 70% alcohol after each test.

[7] = biological target: T2, endogenous PKM2 in BV-2 cell lysate (Mus musculus, UniProt P52480); test: Cellular thermal shift assay (CETSA); assay type: binding
T2 construct: endogenous in cells; host or cells: BV-2 cells
Protocol: For CETSA experiments, BV-2 cells were seeded at a density of 4×10^5 cells/mL in 10 cm petri dishes. After 24 h, the medium was removed, and cells were washed with cold PBS (3.0 mL) 3 times and harvested by scraping. Cells were then isolated by centrifugation (1000 g, 5 min, 4° C.) and resuspended in cell lysis buffer (P0013, Beyotime Biotechnology) with the 1% protease inhibitor cocktail and then incubated on ice for 10 min. The lysates were centrifuged (12,000 g, 15 min, 4° C.), and the supernatants were collected. CIAC001 (50 μM) or vehicle control was incubated with BV-2 cell lysate supernatant for 2 h at 20° C. The lysate supernatants were divided into 60 μL each in microtubes. The lysates were heated at different temperatures (37-72° C.) for 5 min on a Long Gene A200 thermal cycler and cooled down at 25° C. for another 3 min. The samples were stored on ice until centrifugation (20,000 g, 4° C., 20 min) to remove precipitates. The lysate supernatants were denatured in 2× Laemmli sample buffer at 100° C. for 8 min for western blotting with the PKM2 antibody

[8] = test system: morphine-conditioned mice; test: Morphine-induced conditioned place preference (CPP); assay type: in vivo; details: 0.2 mg/kg i.p.
Protocol: Conditional place conditioning (CPP) was conducted using the classic 10-consecutive-day procedure. On days 1 and 2, each mouse was separately placed into the CPP apparatus for 15 min to habituate the apparatus. On day 3 (preconditioning), the time spent in each compartment was recorded to determine any preference for the two compartments. Mice were divided into three groups: vehicle group, 7.5 mg/kg morphine, as well as 7.5 mg/kg morphine+0.2 mg/kg CIAC001. During the conditioning phase, mice were separately isolated in the compartment for 30 min on 6 consecutive days. Mice were given morphine on days 4, 6, and 8, and vehicle (5 mL/kg) was administered on days 5, 7, and 9. The postconditioning phase was carried out 24 h after the last conditioning session. Each mouse was placed in the apparatus and explored freely, and the time spent in each compartment was recorded for 15 min. The CPP score(s) was calculated using the time spent in the drug-paired compartment minus the time spent in the vehicle-paired compartment.

Sequence of PKM2 (P52480 whole entry): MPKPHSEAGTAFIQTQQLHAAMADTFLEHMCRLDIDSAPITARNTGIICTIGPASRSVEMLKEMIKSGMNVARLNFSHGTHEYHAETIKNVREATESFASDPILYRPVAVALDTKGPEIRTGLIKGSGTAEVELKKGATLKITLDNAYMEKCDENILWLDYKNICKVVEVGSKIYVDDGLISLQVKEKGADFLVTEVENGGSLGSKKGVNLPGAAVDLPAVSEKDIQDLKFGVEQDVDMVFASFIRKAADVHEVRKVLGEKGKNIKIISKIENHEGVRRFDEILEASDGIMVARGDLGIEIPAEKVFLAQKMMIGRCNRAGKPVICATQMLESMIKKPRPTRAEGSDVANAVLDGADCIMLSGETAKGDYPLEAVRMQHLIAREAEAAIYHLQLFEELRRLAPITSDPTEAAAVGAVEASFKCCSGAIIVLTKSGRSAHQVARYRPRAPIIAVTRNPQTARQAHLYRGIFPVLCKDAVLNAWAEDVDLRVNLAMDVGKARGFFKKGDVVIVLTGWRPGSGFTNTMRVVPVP
T1 sequence (P34972 whole entry): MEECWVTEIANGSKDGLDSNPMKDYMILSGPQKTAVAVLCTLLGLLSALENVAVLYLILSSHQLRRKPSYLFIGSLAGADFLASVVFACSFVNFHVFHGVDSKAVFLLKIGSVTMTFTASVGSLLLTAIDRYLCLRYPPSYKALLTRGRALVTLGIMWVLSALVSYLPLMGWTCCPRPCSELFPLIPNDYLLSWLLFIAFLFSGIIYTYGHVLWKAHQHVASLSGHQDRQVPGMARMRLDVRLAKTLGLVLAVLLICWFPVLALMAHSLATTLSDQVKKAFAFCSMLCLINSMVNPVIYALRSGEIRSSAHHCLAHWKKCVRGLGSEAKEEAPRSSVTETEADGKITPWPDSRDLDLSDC
T2 sequence (P52480 whole entry): as the sequence (P52480 whole entry) above

## C=C(C)[C@@H]1CCC(C)=C[C@H]1c1c(O)cc(C(C)n2nccn2)cc1O (stereo partly drawn) [CIAC001, (1′R,2′R)-4-(1-(2H-1,2,3-Triazol-2-yl)ethyl)-5′-methyl-2′-(prop-1-en-2-yl)-1′,2′,3′,4′-tetrahydro-[1,1′-biphenyl]-2,6-diol]
[1]
  CB2 receptor activity: no apparent CB1/CB2 activity
[2]
  Alzheimer's disease induced anxiety (arm entry activity, grid traversal): restored arm entry activity and grid traversal
[3]
  LPS-induced LDHA mRNA overexpression: significantly inhibited
[4]; high concentrations of free CIAC001
  binding of Compound 19e to PKM2 in presence of free CIAC001: competitively inhibited
[4]; pull-down, western blot, BV-2
  binding with PKM (PKM2 vs PKM1) in situ and in vitro: directly binds with PKM2 rather than PKM1
[5]
  morphine-induced IL-1β overexpression in mPFC, NAc and VTA: inhibited
[6]
  time spent on the new arm (Y maze): did not affect the time mice spent on the new arm
[7]
  ΔTm at 50 µM: 3.9 ± 1.3 °C
[8]
  expression of morphine-induced CPP: substantially decreased; also recorded: ameliorated
